According to PMC6901909, “Synergy Pattern of Short Cationic Antimicrobial Peptides Against Multidrug-Resistant Pseudomonas aeruginosa” (Frontiers in Microbiology, 2019):
≈ marks a conversion by molar mass, not a printed value. Peptide text beside a SMILES is read from it.

Legend:
MDR P. aeruginosa PA 910 = assay: microbe, parasite or virus in culture; format: cell-based, Pseudomonas aeruginosa; conditions: MDR PA 910, 18 h
Method: (§1) We selected six different P. aeruginosa isolates that were described as MDR and had been isolated from clinical and municipal waste water ([Schwartz et al., 2006]). The minimal inhibitory concentration (MIC) was determined in a microdilution assay using Mueller-Hinton (MH) broth following a previously published protocol ([Wiegand et al., 2008]). Briefly, a twofold serial dilution of the antibiotics and peptides were prepared and added to a bacteria solution, resulting in 2–5 10^5 CFU/ml. The microtiter plates (polypropylene, Corning) were incubated for 18 h at 37°C and MICs were taken visually.

P. aeruginosa PA01-wt = assay: microbe, parasite or virus in culture; format: cell-based, Pseudomonas aeruginosa
Method: as §1

MDR P. aeruginosa PA 919 = assay: microbe, parasite or virus in culture; format: cell-based, Pseudomonas aeruginosa
Method: as §1

MDR P. aeruginosa PA253 = assay: microbe, parasite or virus in culture; format: cell-based, Pseudomonas aeruginosa
Method: as §1

[1] = test system: MDR isolate of P. aeruginosa (PA 910); conditions: checkerboard, MHb
Method: The checkerboard assay was used to determine the fractional inhibitory concentrations (FICs), following the protocol described in Koneman’s Color Atlas and Textbook of Diagnostic Microbiology ([Winn et al., 2006]). Briefly, combinations of peptides and antibiotics were prepared in 96-well plates (polypropylene, Corning) in a twofold dilution series. After the addition of a log-phase bacterial inoculum of 2–5 × 10^5 CFU/ml, plates were incubated at 37°C for 18 h. The FICs were determined by visual inspection and the effects of the combinations were determined using the FICs. The FIC was computed by adding two partial FIC values, FICA—the MIC of drug A, tested in combination with drug B divided by the MIC of drug A, tested alone and FICB—the MIC of drug B, tested in combination with drug A divided by the MIC of drug B, tested alone [FIC = FICA + FICB = (MICAB/MICA) + (MICBA/MICB), where MICA and MICB are the MICs of drugs A and B alone, respectively, and MICAB and MICBA are the MIC concentrations of the drugs in combination]. Here we use the European Committee for Antimicrobial Susceptibility Testing (EUCAST) definition, which is very similar to the definition provided by [Odds, 2003], except Odds define additive effects when FIC values are between 0.5 and 1 ([European Committee for Antimicrobial Susceptibility Testing [EUCAST] of the European Society of Clinical Microbiology and Infectious Diseases [ESCMID], 2000]; [Odds, 2003]). The combination of peptide (drug A) and antibiotics (drug B) was defined as synergistic if the FIC was ≤ 0.5, indifferent if the FIC was > 0.5 but ≤ 4.0 and antagonistic if the FIC was > 4.0.

[2] = short AMPs, microdilution, Mueller-Hinton broth, 18 h at 37°C, read visually, triplicate (n = 3)

| SMILES | MIC against PA910 in μM (peptides, Table 4) (MDR P. aeruginosa PA 910) [µM] | MIC against PA01 wt (P. aeruginosa PA01-wt; -wt, 18 h) [µM] | MIC against MDR isolates of PA, PA919 (MDR P. aeruginosa PA 919; MDR PA 919, 18 h) [µM] | MIC against MDR isolates of PA, PA253 (MDR P. aeruginosa PA253; MDR PA253, 18 h) [µM] | further results |
| --- | --- | --- | --- | --- | --- |
| CC[C@H](C)[C@H](NC(=O)[C@H](CCCNC(=N)N)NC(=O)[C@H](C)NC(=O)[C@H](CC(C)C)NC(=O)[C@@H](N)CCCNC(=N)N)C(=O)N[C@H](C(=O)N[C@H](C(=O)N[C@H](C(=O)N[C@@H](CCCNC(=N)N)C(=O)N[C@H](C(=O)N[C@@H](C)C(=O)N[C@@H](CCCNC(=N)N)C(N)=O)C(C)C)[C@@H](C)CC)C(C)C)C(C)C [Bac2a] (H-RLARIVVIRVAR-NH2) | 32 (≈ 45.5 µg/mL) | 16 (≈ 22.7 µg/mL) | 16 | 32 | – |
| N=C(N)NCCC[C@H](NC(=O)[C@H](CCCNC(=N)N)NC(=O)[C@@H](N)Cc1ccccc1)C(=O)N[C@@H](Cc1c[nH]c2ccccc12)C(=O)N[C@@H](Cc1c[nH]c2ccccc12)C(=O)N[C@@H](CCCCN)C(=O)N[C@@H](Cc1c[nH]c2ccccc12)C(=O)N[C@@H](Cc1ccccc1)C(=O)N[C@@H](CCCCN)C(N)=O [HHC-53] (H-FRRWWKWFK-NH2) | 32 (≈ 46 µg/mL) | 8 (≈ 11.5 µg/mL) | 16 | 8 | – |
| CC[C@H](C)[C@H](N)C(=O)N[C@@H](CC(C)C)C(=O)N1CCC[C@H]1C(=O)N[C@@H](Cc1c[nH]c2ccccc12)C(=O)N[C@@H](CCCCN)C(=O)N[C@@H](Cc1c[nH]c2ccccc12)C(=O)N1CCC[C@H]1C(=O)N[C@@H](Cc1c[nH]c2ccccc12)C(=O)N[C@@H](Cc1c[nH]c2ccccc12)C(=O)N1CCC[C@H]1C(=O)N[C@@H](Cc1c[nH]c2ccccc12)C(=O)N[C@@H](CCCNC(=N)N)C(=O)N[C@@H](CCCNC(=N)N)C(N)=O [Indolic., indolicidin] | – | – | – | – | MIC against PA01 wt (P. aeruginosa PA01-wt; [2]): 8 µM (≈ 15.3 µg/mL); MIC against MDR isolates of PA, PA919 (MDR P. aeruginosa PA 919; [2]): 32 µM; MIC against MDR isolates of PA, PA253 (MDR P. aeruginosa PA253; [2]): 64 to 128 µM; FIC mean (SD), combination with CET ([1]; confirmation study, peptide + ceftazidime, Indopt versions 1/8 MHb, mean of at least three measurements (n = 3), SD in brackets): 0.71 (0.21); FIC, combination with AMI ([1]; peptide + amikacin, for the Indopt versions 1/8 MHb, 2–5 × 10^5 CFU/ml, 37°C, 18 h, visual, determined once (n = 1)): 0.75; FIC, combination with CEF ([1]; peptide + cefepime, for the Indopt versions 1/8 MHb, 2–5 × 10^5 CFU/ml, 37°C, 18 h, visual, determined once (n = 1)): 2; FIC, combination with CET ([1]; peptide + ceftazidime, for the Indopt versions 1/8 MHb, 2–5 × 10^5 CFU/ml, 37°C, 18 h, visual, determined once (n = 1)): 0.51; FIC, combination with CIP ([1]; peptide + ciprofloxacin, for the Indopt versions 1/8 MHb, 2–5 × 10^5 CFU/ml, 37°C, 18 h, visual, determined once (n = 1)): 0.5; FIC, combination with ERY ([1]; peptide + erythromycin, for the Indopt versions 1/8 MHb, 2–5 × 10^5 CFU/ml, 37°C, 18 h, visual, determined once (n = 1)): 0.63; FIC, combination with GEN ([1]; peptide + gentamycin, for the Indopt versions 1/8 MHb, 2–5 × 10^5 CFU/ml, 37°C, 18 h, visual, determined once (n = 1)): 0.5; FIC, combination with IMI ([1]; peptide + imipenem, for the Indopt versions 1/8 MHb, 2–5 × 10^5 CFU/ml, 37°C, 18 h, visual, determined once (n = 1)): 0.63; FIC, combination with KAN ([1]; peptide + kanamycin, for the Indopt versions 1/8 MHb, 2–5 × 10^5 CFU/ml, 37°C, 18 h, visual, determined once (n = 1)): 0.75; FIC, combination with MER ([1]; peptide + meropenem, for the Indopt versions 1/8 MHb, 2–5 × 10^5 CFU/ml, 37°C, 18 h, visual, determined once (n = 1)): 0.63; FIC, combination with PIP ([1]; peptide + piperacillin, for the Indopt versions 1/8 MHb, 2–5 × 10^5 CFU/ml, 37°C, 18 h, visual, determined once (n = 1)): 0.56; FIC, combination with PMB ([1]; peptide + polymyxin B, for the Indopt versions 1/8 MHb, 2–5 × 10^5 CFU/ml, 37°C, 18 h, visual, determined once (n = 1)): 0.25; FIC, combination with TET ([1]; peptide + tetracycline, for the Indopt versions 1/8 MHb, 2–5 × 10^5 CFU/ml, 37°C, 18 h, visual, determined once (n = 1)): 1; FIC, combination with TOB ([1]; peptide + tobramycin, for the Indopt versions 1/8 MHb, 2–5 × 10^5 CFU/ml, 37°C, 18 h, visual, determined once (n = 1)): 0.5 |
| CC[C@H](C)[C@H](NC(=O)[C@@H](N)Cc1ccccc1)C(=O)N[C@@H](CCCCN)C(=O)N[C@@H](Cc1c[nH]c2ccccc12)C(=O)N[C@@H](CCCCN)C(=O)N[C@@H](CCCCN)C(=O)N[C@@H](CCCNC(=N)N)C(=O)N[C@@H](Cc1c[nH]c2ccccc12)C(=O)N[C@@H](Cc1c[nH]c2ccccc12)C(=O)N[C@@H](CCCCN)C(=O)N[C@@H](CCCCN)C(=O)N[C@@H](CCCNC(=N)N)C(=O)N[C@H](C(N)=O)[C@@H](C)O [Indopt 1] (H-FIKWKKRWWKKRT-NH2) | 8 (≈ 15.1 µg/mL) | 4 (≈ 7.56 µg/mL) | 32 | 16 | – |
| CC[C@H](C)[C@H](NC(=O)[C@@H](N)Cc1ccccc1)C(=O)N[C@@H](CCCCN)C(=O)N[C@@H](Cc1c[nH]c2ccccc12)C(=O)N[C@@H](CCCNC(=N)N)C(=O)N[C@@H](Cc1ccccc1)C(=O)N[C@@H](CCCNC(=N)N)C(=O)N[C@@H](CCCNC(=N)N)C(=O)N[C@@H](Cc1c[nH]c2ccccc12)C(=O)N[C@@H](CCCCN)C(=O)N[C@@H](CCCCN)C(=O)N[C@@H](CCCNC(=N)N)C(=O)N[C@H](C(N)=O)[C@@H](C)O [Indopt 2] (H-FIKWRFRRWKKRT-NH2) | 8 (≈ 15.3 µg/mL) | 4 (≈ 7.63 µg/mL) | 32 | 16 | – |
| CC[C@H](C)[C@H](NC(=O)[C@@H](N)Cc1ccccc1)C(=O)N[C@@H](CCCCN)C(=O)N[C@@H](Cc1c[nH]c2ccccc12)C(=O)N[C@@H](CCCNC(=N)N)C(=O)N[C@@H](CO)C(=O)N[C@@H](CCCNC(=N)N)C(=O)N[C@@H](Cc1c[nH]c2ccccc12)C(=O)N[C@@H](Cc1c[nH]c2ccccc12)C(=O)N[C@@H](CCCCN)C(=O)N[C@@H](CCCCN)C(=O)N[C@@H](CCCNC(=N)N)C(=O)N[C@H](C(N)=O)[C@@H](C)O [Indopt 3] (H-FIKWRSRWWKKRT-NH2) | 8 (≈ 15 µg/mL) | 4 (≈ 7.51 µg/mL) | 32 | 16 | – |
| CC[C@H](C)[C@H](NC(=O)[C@@H](N)Cc1ccccc1)C(=O)N[C@@H](CCCCN)C(=O)N[C@@H](Cc1c[nH]c2ccccc12)C(=O)N[C@@H](CCCNC(=N)N)C(=O)N[C@@H](Cc1ccccc1)C(=O)N[C@@H](CCCNC(=N)N)C(=O)N[C@@H](CCCNC(=N)N)C(=O)N[C@@H](Cc1c[nH]c2ccccc12)C(=O)N[C@@H](CCCCN)C(=O)N[C@@H](CCCCN)C(=O)N[C@@H](CCCNC(=N)N)C(=O)N[C@@H](CCCCN)C(N)=O [Indopt 4] (H-FIKWRFRRWKKRK-NH2) | 4 to 8 | 4 (≈ 7.74 µg/mL) | 16 to 32 | 8 | MIC against MDR isolates of PA, PA910 (MDR P. aeruginosa PA 910): 4 to 8 µM |
| CC[C@H](C)[C@H](NC(=O)[C@@H](N)Cc1ccccc1)C(=O)N[C@@H](CCCCN)C(=O)N[C@@H](Cc1c[nH]c2ccccc12)C(=O)N[C@@H](CCCCN)C(=O)N[C@@H](Cc1ccccc1)C(=O)N[C@@H](CCCNC(=N)N)C(=O)N1CCC[C@H]1C(=O)N[C@@H](Cc1c[nH]c2ccccc12)C(=O)N[C@@H](CCCCN)C(=O)N[C@@H](CCCCN)C(=O)N[C@@H](CCCNC(=N)N)C(=O)N[C@H](C(N)=O)[C@@H](C)O [Indopt 5] (H-FIKWKFRPWKKRT-NH2) | 8 (≈ 14.6 µg/mL) | 4 (≈ 7.28 µg/mL) | 16 to 32 | 16 | – |
| CC[C@H](C)[C@H](NC(=O)[C@@H](N)Cc1ccccc1)C(=O)N[C@@H](CCCCN)C(=O)N[C@@H](CCCNC(=N)N)C(=O)N[C@@H](CCCCN)C(=O)N[C@@H](CO)C(=O)N[C@@H](CCCNC(=N)N)C(=O)N[C@@H](Cc1c[nH]c2ccccc12)C(=O)N[C@@H](Cc1c[nH]c2ccccc12)C(=O)N[C@@H](CCCCN)C(=O)N[C@@H](Cc1c[nH]c2ccccc12)C(=O)N[C@@H](CCCNC(=N)N)C(=O)N[C@H](C(N)=O)[C@@H](C)O [Indopt 6] (H-FIKRKSRWWKWRT-NH2) | 8 (≈ 15 µg/mL) | 4 (≈ 7.51 µg/mL) | 32 | 8 to 16 | – |
